Measurements as given in US6333313A, “Clinical use of oxytocin alone or in combination to treat bone disorders” (Board of Regents, The University of Texas System, priority 1999, dated 2001).
Starred links: 1 amine or outer side, 2 acyl side, 3 side chain; linkers in the order of their positions; H or OH if unused. Positions of bridges follow the written chain, without caps; N, C: chain ends. Non-standard residues stand in square brackets, D forms with d. Residues, ends and D or L forms follow the SMILES beside them. No end group written: not given here. X1 = O=C(CC1(S[*:2])CCCCC1)[*:1]; Orn = NCCC[C@H](N)C(=O)O

Key:
bone formation [1] = conditions: systemic administration; cited from earlier work
rat osteogenic cells = conditions: in vitro; cited from earlier work
bone formation [2] = conditions: in vivo, high dose; cited from earlier work
bone; uterus = conditions: rats; compared with estradiol; cited from earlier work
cortical bone [3] = conditions: injections with mild exercise; old female rats; cited from earlier work
OTR [4] = target: T1, OTR (Homo sapiens, UniProt P30559); experiment: Whole cell OTR ligand binding, Scatchard analysis, Saos-2 cells; design: Undifferentiated or differentiated human trabecular bone cells with osteogenic capacity in primary culture express oxytocin receptors (OTRs); endogenous in cells; host or cells: primary human osteoblastic cells from rib trabecular bone explants (undifferentiated, or differentiated in mineralizing medium)
T1 sequence (P30559 1-389): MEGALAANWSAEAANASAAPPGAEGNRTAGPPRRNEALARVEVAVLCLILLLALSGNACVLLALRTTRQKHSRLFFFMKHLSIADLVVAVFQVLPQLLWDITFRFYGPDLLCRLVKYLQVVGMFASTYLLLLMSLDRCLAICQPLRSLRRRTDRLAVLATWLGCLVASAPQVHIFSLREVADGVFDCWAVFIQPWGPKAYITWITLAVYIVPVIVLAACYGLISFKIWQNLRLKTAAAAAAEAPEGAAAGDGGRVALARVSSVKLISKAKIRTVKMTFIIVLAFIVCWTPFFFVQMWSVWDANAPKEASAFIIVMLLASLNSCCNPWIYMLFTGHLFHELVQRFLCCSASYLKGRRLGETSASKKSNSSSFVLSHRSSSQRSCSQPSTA
Protocol: (§1) Cell Culture Conditions: Human osteosarcoma cells (Saos-2) cells were obtained from the ATCC (Rockville, Md.). Human osteoblasts (Cheng et al., 1994; Civitelli et al., 1993) were prepared from explants of cultured rib trabecular. These cells were grown in mineralizing media consisting of DMEM supplemented with 10% fetal bovine serum (FBS), 2% penicillin/streptomycin, dexamethasone (100 nM), ascorbate (50 μg/ml, and β3-glycerophosphate (10 μg/ml) in a humidified tissue culture incubator at 37C under an atmosphere of 5% CO2 and 95% air. These conditions accelerate the osteoblastic modulation of undifferentiated human trabecular bone cells and the production of osteogenic mineralizeable collagen matrix (Cheng et al., Civitelli et al., 1993). To retain undifferentiated osteoblastic phenotype, cells were cultured in the absence of dexamethasone, ascorbate, and β-glycerophosphate. Osteoblast phenotype was verified by alkaline phosphatase activity and mineralization of the extracellular matrix using von Kossa staining. The cells were used on the first passage following initial plating.
(§2) Determination of OTR ligand binding: OTA was monoiodinated as previously described (Hinko and Soloff, 1992). […] The concentration of cellular DNA was determined in parallel, using the Hoechst dye H 33258 and a Hoefer DyNA Quant fluorometer according to the manufacturer's instructions.

OTR [5] = target: T1, OTR; experiment: Whole cell OTR ligand binding, Scatchard analysis, undifferentiated osteoblastic cells; design: Undifferentiated or differentiated human trabecular bone cells with osteogenic capacity in primary culture express oxytocin receptors (OTRs); endogenous in cells; host or cells: primary human osteoblastic cells from rib trabecular bone explants (undifferentiated, or differentiated in mineralizing medium); conditions: +/- SE
Protocol: as §1, §2

OTR [6] = target: T1, OTR; experiment: Whole cell OTR ligand binding, Scatchard analysis, differentiated osteoblastic cells; design: Undifferentiated or differentiated human trabecular bone cells with osteogenic capacity in primary culture express oxytocin receptors (OTRs); endogenous in cells; host or cells: primary human osteoblastic cells from rib trabecular bone explants (undifferentiated, or differentiated in mineralizing medium)
Protocol: as §1, §2

[7] = tested on: Undifferentiated and differentiated osteoblastic cells; experiment: PGE2 levels in media of OT-stimulated cells (EIA); type: cell-based, human; conditions: 100 nM OT, over nontreated controls
Protocol: FIG. 4A and FIG. 4B PGE2 levels in media of cells stimulated with 100 nM OT. (FIG. 4A.) Undifferentiated osteoblastic cells and (FIG. 4B.) differentiated osteoblastic cells. Each point is the mean +/- SE of triplicates. * indicates P<0.05 compared to matched basal control.
Prostaglandin E2 (PGE2) levels. PGE2 levels in media were measured using a PGE2 enzyme immunoassay (EIA) system from Amersham Life Sciences (Arlington Heights, Ill.) as previously described (Copland, et al., 1999). The sensitivity of the assay was 2.5 pg/ml with an intraassay coefficient of variation of 6.3% and the interassay coefficient of variation of 6.9%.
Undifferentiated and differentiated osteoblastic cells were tested to determine whether OT could stimulate PGE2 synthesis. Undifferentiated osteoblastic cells that were allowed to come to confluence and maintained for 2 weeks in either 10% FBS/DMEM or in mineralizing medium (differentiated osteoblast), synthesized and released PGE2 into the media in response to 100 nM OT (FIG. 4A and FIG. 4B, respectively).

OTR [8] = target: T1, OTR; experiment: Intracellular calcium levels, undifferentiated osteoblastic cells; type: cell-based; design: Undifferentiated or differentiated human trabecular bone cells with osteogenic capacity in primary culture express oxytocin receptors (OTRs); endogenous in cells; host or cells: primary human osteoblastic cells from rib trabecular bone explants (undifferentiated, or differentiated in mineralizing medium); conditions: 10 nM OT
Protocol: (§3) FIG. 3A, FIG. 3B and FIG. 3C Intracellular calcium transients after 10 nM oxytocin treatment. (FIG. 3A.) Undifferentiated osteoblastic cells; (FIG. 3B.) differentiated osteoblastic cells; and (FIG. 3C.) Saos-2 cells. Cells were incubated at 37C and treated in the following manner; 100 nM OTA for 1 min, […], wash cells 3 times to remove bound antagonist, 10 min recovery, and then 10 nM OT treatment.
as §1, with “Osteoblast phenotype was verified by alkaline phosphatase activity and mineralization of the extracellular matrix using von Kossa staining. The cells were used on the first passage following initial plating.” left out

OTR [9] = target: T1, OTR; experiment: Intracellular calcium levels, differentiated osteoblastic cells; type: cell-based; design: Undifferentiated or differentiated human trabecular bone cells with osteogenic capacity in primary culture express oxytocin receptors (OTRs); endogenous in cells; host or cells: primary human osteoblastic cells from rib trabecular bone explants (undifferentiated, or differentiated in mineralizing medium); conditions: 10 nM OT
Protocol: as §3
as §1, with “Osteoblast phenotype was verified by alkaline phosphatase activity and mineralization of the extracellular matrix using von Kossa staining. The cells were used on the first passage following initial plating.” left out

OTR [10] = target: T1, OTR; experiment: Intracellular calcium levels, Saos-2 cells; type: cell-based; conditions: 10 nM OT
Protocol: as §3
as §1, with “Osteoblast phenotype was verified by alkaline phosphatase activity and mineralization of the extracellular matrix using von Kossa staining. The cells were used on the first passage following initial plating.” left out

rat osteoblastic cell = conditions: combined with insulin-like growth factor-1; cited from earlier work
bone formation [11] = conditions: in vivo; cited from earlier work
cortical bone [12] = conditions: ovariectomized rats; cited from earlier work

IGF-1/IGF BP-3: insulin-like growth factor-1 combined with insulin-like growth factor binding protein-3
effect of IGF-1 on bone formation when combined with IGF BP-3 (bone formation [1]): potentiated

substance P: a neuropeptide with wide distribution in central and peripheral nervous system (RPKPQQFFGLM; ends and bridges not checked; UniProt P20366 58-68, looked up)
cell proliferation (rat osteogenic cells): increased cell proliferation in a dose dependent fashion

C=C1/C(=C\C=C2/CCC[C@]3(C)[C@@H]([C@H](C)CCCC(C)(C)O)CC[C@@H]23)C[C@@H](O)C[C@@H]1O [1,25 dihydroxyvitamin D3]
bone formation (bone formation [2]): stimulates bone formation

Oc1ccc2c(c1)CC[C@H](c1ccccc1)[C@@H]2c1ccc(OCCN2CCCC2)cc1 [CP-336,156]
uterine-stimulating effects (bone; uterus): without the uterine-stimulating effects associated with estradiol

Growth Hormone: growth hormone injections
formation and strength of cortical bone (cortical bone [3]): increase the formation and strength of cortical bone

CC[C@H](C)[C@@H]1NC(=O)[C@H](Cc2ccc(OC)cc2)NC(=O)CC2(CCCCC2)SSC[C@@H](C(=O)N2CCC[C@H]2C(=O)N[C@@H](CCCN)C(=O)N[C@@H](Cc2ccc(O)cc2)C(N)=O)NC(=O)[C@H](CC(N)=O)NC(=O)[C@H]([C@@H](C)O)NC1=O [{^125 I]OTA] (Y(Me)ITNCP[Orn]Y-NH2; linker N-5 via X1)
Bmax (OTR [4]): 24.6+/-3.2 fmol/10 μg DNA | Kd (OTR [4]; read-out: apparent Kd): 0.15 ± 0.028 nM | Bmax (OTR [5]): 5.7+/-0.8 fmol/10 μg DNA | Kd (OTR [5]; read-out: apparent Kd): 0.132 ± 0.027 nM | Bmax (OTR [6]): 12.3+/-1.4 fmol/10 μg DNA | Kd (OTR [6]; read-out: apparent Kd): 0.175 ± 0.034 nM

CC[C@H](C)[C@@H]1NC(=O)[C@H](Cc2ccc(O)cc2)NC(=O)[C@@H](N)CSSC[C@@H](C(=O)N2CCC[C@H]2C(=O)N[C@@H](CC(C)C)C(=O)NCC(N)=O)NC(=O)[C@H](CC(N)=O)NC(=O)[C@H](CCC(N)=O)NC1=O [OT, oxytocin]
increase in PGE2 synthesis ([7]; 15 and 30 minutes): 2 fold | increase in PGE2 synthesis ([7]; by 1 h of OT stimulation): 4-6 fold | rise in [Ca2+]i (OTR [8]): responded within seconds to OT treatment with a rise in [Ca^2+ ]i | rise in [Ca2+]i (OTR [9]): responded within seconds to OT treatment with a rise in [Ca^2+ ]i | rise in [Ca2+]i (OTR [10]): responded within seconds to OT treatment with a rise in [Ca^2+ ]i

B1: Osteogenic Protein-1: osteogenic protein-1 (protein, UniProt P18075 293-431, looked up)
Bone morphogenetic protein 7: STGSKQRSQNRSKTPKNQEALRMANVAENSSSDQRQACKKHELYVSFRDLGWQDWIIAPEGYAAYYCEGECAFPLNSYMNATNHAIVQTLVHFINPETVPKPCCAPTQLNAISVLYFDDSSNVILKKYRNMVVRACGCH
stimulation of rat osteoblastic cell differentiation and proliferation (rat osteoblastic cell): synergistic with insulin-like growth factor-1 | new bone formation (bone formation [11]): induces new bone formation

B2: Parathyroid Hormone: parathyroid hormone (protein, UniProt P01270 32-115, looked up)
Parathyroid hormone: SVSEIQLMHNLGKHLNSMERVEWLRKKLQDVHNFVALGAPLAPRDAGSQRPRKKEDNVLVESHEKSLGEADKADVNVLTKAKSQ
modifications: Parathyroid hormone
femoral length and strength in cortical bone (cortical bone [12]): dose dependent increase
